Measurements reported in patent US9371275B2, “5-aminolevulinic acid prodrugs for use in photodynamic therapy and photodynamic diagnosis” (Swedish Pharma AB, priority 2008, dated 2016).

Key:
[1] = after intravenous injection; very slow clearance rate from the body; cited from earlier work
[2] = after application of 5ALA or known derivatives; cited from earlier work
[3] = tested on: human living cells; assay: PpIX synthesis in human living cells, spectrofluorometric measurements (fluorescence at 632 nm); type: cell-based
Description: Using the spectrum of PpIX as reference (FIG. 2), a comparison between PpIX synthesis by the oxime compound according to the invention with that based on the methyl ester of 5ALA currently in clinical use (MetVix), was made on human living cells using spectrofluorometric measurements.
Diamonds=5ALA methyl ester (MetVix); Squares=5ALA oxime 20% w/w in Essex™ cream.

Oc1cccc(-c2c3nc(c(-c4cccc(O)c4)c4ccc([nH]4)c(-c4cccc(O)c4)c4nc(c(-c5cccc(O)c5)c5ccc2[nH]5)CC4)C=C3)c1 [Foscan, temoporfin]
duration of patient hypersensitization [1]: up to 3 weeks

NCC(=O)CCC(=O)O [5ALA, 5-aminolevulinic acid]
time after application at which PpIX concentration reaches optimal therapeutic window [2]: 2 to 4 h | time in which PpIX concentration decays to normal background levels [2]: 36 to 48 h

NCC(CCC(=O)O)=NO [5-ALA oxime]
production of PpIX [3]: capable of producing PpIX | time for which elevated levels of PpIX are retained after application ([3]; 5ALA oxime 20% w/w in Essex cream, human cells, fluorescence at 632 nm): at least 6 h | concentration of PpIX generated compared with 5ALA methyl ester (MetVix) ([3]; 3 h after application, 5-ALA oxime 20% (w/w) in Essex cream, human cells): higher concentration of PpIX
